Measurements published in PMC9841523 (Journal of Medicinal Chemistry, 2022).

What was measured:
ROCK1, ROCK2 = assay: KiNativ kinase panel; format: cell-based, human; settings: 1 μM; MCF-7 Cells; Lys1; VYAMKLLSK
[1] = biological target: T1, μ (MOP) (h) (agonist radioligand) (Homo sapiens, UniProt P35372); assay: Eurofins Safety Screen 44; format: binding; settings: read-out: % Inhibition of Control Values
T1 construct: purchased ActivX Biosciences (KiNativ)

[2] = biological target: T2, M3(h) (antagonist radioligand) (Homo sapiens, UniProt P20309); assay: Eurofins Safety Screen 44; format: binding; settings: read-out: % Inhibition of Control Values
T2 construct: purchased ActivX Biosciences (KiNativ)

[3] = biological target: T3, MAO-A (antagonist radioligand) (Rattus norvegicus, UniProt P21396); assay: Eurofins Safety Screen 44; format: binding; settings: read-out: % Inhibition of Control Values
T3 construct: purchased ActivX Biosciences (KiNativ)

[4] = biological target: T4, δ (DOP) (h) (agonist radioligand) (Homo sapiens, UniProt P41143); assay: Eurofins Safety Screen 44; format: binding; settings: read-out: % Inhibition of Control Values
T4 construct: purchased ActivX Biosciences (KiNativ)

[5] = biological target: T5, 5-HT2A(h) (agonist radioligand) (Homo sapiens, UniProt P28223); assay: Eurofins Safety Screen 44; format: binding; settings: read-out: % Inhibition of Control Values
T5 construct: purchased ActivX Biosciences (KiNativ)

[6] = biological target: T6, M1(h) (antagonist radioligand) (Homo sapiens, UniProt P11229); assay: Eurofins Safety Screen 44; format: binding; settings: read-out: % Inhibition of Control Values
T6 construct: purchased ActivX Biosciences (KiNativ)

[7] = biological target: T7, A2A(h) (agonist radioligand) (Homo sapiens, UniProt P29274); assay: Eurofins Safety Screen 44; format: binding; settings: read-out: % Inhibition of Control Values
T7 construct: purchased ActivX Biosciences (KiNativ)

[8] = test system: Ca2+ channel (L, dihydropyridine site) (antagonist radioligand); assay: Eurofins Safety Screen 44; format: binding; settings: 10 µM
[9] = biological target: T8, H2(h) (antagonist radioligand) (Homo sapiens, UniProt P25021); assay: Eurofins Safety Screen 44; format: binding; settings: read-out: % Inhibition of Control Values
T8 construct: purchased ActivX Biosciences (KiNativ)

[10] = test system: AKT S473 phosphorylation (mTORC2); assay: AlphaLISA/MSD analysis of AKT phosphorylation in MDA-MB-468 cells; format: cell-based; settings: Homo sapiens, MDA-MB-468, read-out: pAKT IC50
[11] = biological target: T9, dopamine transporter(h) (antagonist radioligand) (Homo sapiens, UniProt Q01959); assay: Eurofins Safety Screen 44; format: binding; settings: read-out: % Inhibition of Control Values
T9 construct: Eurofins (ran the panel)

[12] = test system: 4EBP1 T37/T46 phosphorylation (mTORC1); assay: AlphaLISA/MSD analysis of 4EBP1 phosphorylation in MDA-MB-468 cells; format: cell-based; settings: Homo sapiens, MDA-MB-468, read-out: p4EBP1 IC50
[13] = biological target: T10, 5-HT1A(h) (agonist radioligand) (Homo sapiens, UniProt P08908); assay: Eurofins Safety Screen 44; format: binding; settings: read-out: % Inhibition of Control Values
T10 construct: purchased ActivX Biosciences (KiNativ)

[14] = test system: AR (h) (agonist radioligand); assay: Eurofins Safety Screen 44; format: binding, human; settings: 10 µM

T6 sequence (P11229 whole entry): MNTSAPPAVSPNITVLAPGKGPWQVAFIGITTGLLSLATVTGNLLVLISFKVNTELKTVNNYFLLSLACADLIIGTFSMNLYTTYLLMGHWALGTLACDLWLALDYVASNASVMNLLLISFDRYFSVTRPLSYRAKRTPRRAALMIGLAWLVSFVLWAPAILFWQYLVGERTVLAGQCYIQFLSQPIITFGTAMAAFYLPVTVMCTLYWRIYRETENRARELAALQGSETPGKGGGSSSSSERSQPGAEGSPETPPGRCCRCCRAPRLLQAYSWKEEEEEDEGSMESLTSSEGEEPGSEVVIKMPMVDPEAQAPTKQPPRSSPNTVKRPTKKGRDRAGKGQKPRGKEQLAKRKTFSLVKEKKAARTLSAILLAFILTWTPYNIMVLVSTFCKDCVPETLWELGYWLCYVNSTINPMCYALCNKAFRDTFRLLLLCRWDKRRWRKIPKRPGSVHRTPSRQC
T3 sequence (P21396 whole entry): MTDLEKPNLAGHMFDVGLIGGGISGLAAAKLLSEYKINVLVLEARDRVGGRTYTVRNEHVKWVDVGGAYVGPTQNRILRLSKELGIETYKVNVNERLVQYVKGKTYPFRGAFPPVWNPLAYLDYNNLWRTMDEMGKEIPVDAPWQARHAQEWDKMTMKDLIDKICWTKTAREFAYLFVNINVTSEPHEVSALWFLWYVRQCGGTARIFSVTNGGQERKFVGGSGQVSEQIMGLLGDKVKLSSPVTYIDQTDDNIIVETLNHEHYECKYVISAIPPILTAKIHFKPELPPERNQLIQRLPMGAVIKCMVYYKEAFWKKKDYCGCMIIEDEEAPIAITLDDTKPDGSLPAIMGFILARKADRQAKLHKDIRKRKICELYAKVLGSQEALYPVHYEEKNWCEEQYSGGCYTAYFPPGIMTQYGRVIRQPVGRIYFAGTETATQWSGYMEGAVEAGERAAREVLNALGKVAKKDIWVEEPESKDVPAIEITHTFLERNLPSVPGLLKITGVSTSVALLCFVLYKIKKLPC
T10 sequence (P08908 whole entry): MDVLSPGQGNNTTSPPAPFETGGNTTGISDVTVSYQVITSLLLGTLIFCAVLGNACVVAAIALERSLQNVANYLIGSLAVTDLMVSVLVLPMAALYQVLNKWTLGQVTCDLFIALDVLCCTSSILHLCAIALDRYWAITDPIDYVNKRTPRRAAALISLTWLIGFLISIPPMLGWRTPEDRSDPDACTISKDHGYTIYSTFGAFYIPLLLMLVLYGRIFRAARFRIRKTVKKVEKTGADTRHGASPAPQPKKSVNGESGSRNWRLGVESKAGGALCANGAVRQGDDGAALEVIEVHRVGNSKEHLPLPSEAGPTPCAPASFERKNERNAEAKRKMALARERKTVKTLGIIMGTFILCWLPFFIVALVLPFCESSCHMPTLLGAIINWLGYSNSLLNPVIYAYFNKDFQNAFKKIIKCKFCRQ
T9 sequence (Q01959 whole entry): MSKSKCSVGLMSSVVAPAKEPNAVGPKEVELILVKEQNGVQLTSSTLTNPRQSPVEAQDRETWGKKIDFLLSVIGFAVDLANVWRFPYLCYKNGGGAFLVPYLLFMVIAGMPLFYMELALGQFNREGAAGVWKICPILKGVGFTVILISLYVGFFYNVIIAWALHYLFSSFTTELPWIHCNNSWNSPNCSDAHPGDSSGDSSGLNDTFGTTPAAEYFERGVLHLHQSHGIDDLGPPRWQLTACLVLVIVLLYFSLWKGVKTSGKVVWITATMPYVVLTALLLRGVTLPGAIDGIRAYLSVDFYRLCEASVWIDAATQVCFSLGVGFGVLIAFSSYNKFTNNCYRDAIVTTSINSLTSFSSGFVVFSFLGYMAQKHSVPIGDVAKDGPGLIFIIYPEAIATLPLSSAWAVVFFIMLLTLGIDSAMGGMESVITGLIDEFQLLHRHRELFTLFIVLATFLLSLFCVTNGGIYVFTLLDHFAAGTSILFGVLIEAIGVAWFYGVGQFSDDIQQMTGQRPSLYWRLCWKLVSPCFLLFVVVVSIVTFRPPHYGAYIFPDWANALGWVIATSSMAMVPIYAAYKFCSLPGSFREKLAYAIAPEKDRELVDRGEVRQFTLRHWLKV
T2 sequence (P20309 whole entry): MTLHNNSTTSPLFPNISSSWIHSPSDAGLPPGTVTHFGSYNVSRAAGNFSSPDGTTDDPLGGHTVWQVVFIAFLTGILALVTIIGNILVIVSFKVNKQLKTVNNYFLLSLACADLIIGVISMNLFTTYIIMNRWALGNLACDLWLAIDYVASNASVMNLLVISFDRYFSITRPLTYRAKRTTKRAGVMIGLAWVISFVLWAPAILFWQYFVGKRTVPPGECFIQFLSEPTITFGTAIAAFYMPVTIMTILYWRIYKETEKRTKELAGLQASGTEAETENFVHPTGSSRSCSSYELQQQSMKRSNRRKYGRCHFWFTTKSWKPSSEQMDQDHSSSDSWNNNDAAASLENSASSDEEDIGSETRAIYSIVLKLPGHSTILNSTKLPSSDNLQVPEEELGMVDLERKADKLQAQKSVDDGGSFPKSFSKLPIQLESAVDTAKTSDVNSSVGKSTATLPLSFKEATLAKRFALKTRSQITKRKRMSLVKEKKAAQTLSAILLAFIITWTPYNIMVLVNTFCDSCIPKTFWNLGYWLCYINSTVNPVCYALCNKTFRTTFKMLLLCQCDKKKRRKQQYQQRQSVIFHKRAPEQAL
T5 sequence (P28223 whole entry): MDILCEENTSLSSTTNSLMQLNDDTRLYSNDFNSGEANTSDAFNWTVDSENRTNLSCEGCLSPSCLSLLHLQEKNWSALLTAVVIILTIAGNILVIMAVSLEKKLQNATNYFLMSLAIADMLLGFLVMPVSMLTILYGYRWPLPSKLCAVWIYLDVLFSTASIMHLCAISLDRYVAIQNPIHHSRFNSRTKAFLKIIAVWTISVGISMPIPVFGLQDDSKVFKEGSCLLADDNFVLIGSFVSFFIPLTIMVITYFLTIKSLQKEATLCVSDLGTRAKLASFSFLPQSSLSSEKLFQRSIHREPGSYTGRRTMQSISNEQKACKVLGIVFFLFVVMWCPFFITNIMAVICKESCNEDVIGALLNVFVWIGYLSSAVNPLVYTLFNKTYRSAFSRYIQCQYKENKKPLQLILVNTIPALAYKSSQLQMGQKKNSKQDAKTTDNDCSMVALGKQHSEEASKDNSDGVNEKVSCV
T4 sequence (P41143 whole entry): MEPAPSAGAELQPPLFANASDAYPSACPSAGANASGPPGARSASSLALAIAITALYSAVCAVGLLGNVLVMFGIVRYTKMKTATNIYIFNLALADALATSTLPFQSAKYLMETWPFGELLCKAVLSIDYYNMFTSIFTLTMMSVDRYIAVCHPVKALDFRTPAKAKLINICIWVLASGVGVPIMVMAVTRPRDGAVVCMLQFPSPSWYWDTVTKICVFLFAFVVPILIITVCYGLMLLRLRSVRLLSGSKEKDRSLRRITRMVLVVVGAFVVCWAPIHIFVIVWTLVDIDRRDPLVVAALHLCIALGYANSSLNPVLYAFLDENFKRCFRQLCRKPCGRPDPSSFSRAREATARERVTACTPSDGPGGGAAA
T8 sequence (P25021 whole entry): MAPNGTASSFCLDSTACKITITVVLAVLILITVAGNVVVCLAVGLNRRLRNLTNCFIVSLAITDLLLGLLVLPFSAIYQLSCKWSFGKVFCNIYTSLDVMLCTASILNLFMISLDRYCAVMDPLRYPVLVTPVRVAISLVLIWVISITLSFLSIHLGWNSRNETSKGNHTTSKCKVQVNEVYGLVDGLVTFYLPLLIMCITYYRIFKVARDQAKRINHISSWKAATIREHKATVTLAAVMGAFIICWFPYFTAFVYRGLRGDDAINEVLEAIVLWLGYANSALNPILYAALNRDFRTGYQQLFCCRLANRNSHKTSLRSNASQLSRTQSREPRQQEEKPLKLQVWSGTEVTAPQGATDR
T7 sequence (P29274 whole entry): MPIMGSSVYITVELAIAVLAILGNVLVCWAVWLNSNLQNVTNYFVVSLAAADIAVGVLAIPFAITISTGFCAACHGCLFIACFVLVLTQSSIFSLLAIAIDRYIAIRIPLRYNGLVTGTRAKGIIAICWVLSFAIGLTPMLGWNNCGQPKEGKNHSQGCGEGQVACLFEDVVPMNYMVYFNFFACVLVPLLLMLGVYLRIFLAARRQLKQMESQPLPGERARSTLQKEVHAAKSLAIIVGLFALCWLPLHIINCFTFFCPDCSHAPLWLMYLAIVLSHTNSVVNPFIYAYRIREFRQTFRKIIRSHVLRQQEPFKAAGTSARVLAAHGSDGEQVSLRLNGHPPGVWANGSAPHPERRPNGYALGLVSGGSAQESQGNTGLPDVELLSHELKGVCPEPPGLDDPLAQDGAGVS
T1 sequence (P35372 whole entry): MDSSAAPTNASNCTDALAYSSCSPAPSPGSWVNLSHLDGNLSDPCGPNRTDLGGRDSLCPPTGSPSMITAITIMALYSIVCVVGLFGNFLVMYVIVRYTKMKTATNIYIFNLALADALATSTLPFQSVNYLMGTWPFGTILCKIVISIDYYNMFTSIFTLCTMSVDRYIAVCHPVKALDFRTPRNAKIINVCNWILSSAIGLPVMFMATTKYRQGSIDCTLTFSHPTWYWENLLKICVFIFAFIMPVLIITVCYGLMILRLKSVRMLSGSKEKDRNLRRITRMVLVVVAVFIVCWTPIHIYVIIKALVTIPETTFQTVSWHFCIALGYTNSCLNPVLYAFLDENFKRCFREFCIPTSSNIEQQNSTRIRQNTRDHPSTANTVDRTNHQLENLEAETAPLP

SMILES	KiNativ Kinase Panel Data (ROCK1, ROCK2)	inhibition at 10 µM [1]	inhibition at 10 µM [2]	inhibition at 10 µM [3]	inhibition at 10 µM [4]	inhibition at 10 µM [5]	inhibition at 10 µM [6]	inhibition at 10 µM [7]	% Inhibition of Control Values [8]	inhibition at 10 µM [9]	IC50 [10]	inhibition at 10 µM [11]	IC50 [12]	inhibition at 10 µM [13]	% Inhibition of Control Values [14]
CO[C@H]1C[C@@H]2CC[C@@H](C)[C@@](O)(O2)C(=O)C(=O)N2CCCC[C@H]2C(=O)O[C@H]([C@H](C)C[C@@H]2CC[C@@H](OC(=O)NCCOCCOCCOCCOCCOCCOCCOCCOCCC(=O)NCCS(=O)(=O)c3ccc(C(=O)N4CCOc5ccc(-c6ccc(N)nc6)cc5C4)c(C)c3F)[C@H](OC)C2)C[C@@H](O)[C@H](C)/C=C(\C)[C@@H](O)[C@@H](OC)C(=O)[C@H](C)C[C@H](C)/C=C/C=C/C=C/1C [compound 40]	-42.0	–	–	–	–	–	–	–	–	–	–	–	–	–	–
CO[C@H]1C[C@@H]2CC[C@@H](C)[C@@](O)(O2)C(=O)C(=O)N2CCCC[C@H]2C(=O)O[C@H]([C@H](C)C[C@@H]2CC[C@@H](OC(=O)NCCOCCOCCOCCOCCOCCOCCOCCOCCC(=O)N3CCc4cc(Cn5nc(-c6ccc7oc(N)nc7c6)c6c(N)ncnc65)ccc4C3)[C@H](OC)C2)C[C@@H](O)[C@H](C)/C=C(\C)[C@@H](O)[C@@H](OC)C(=O)[C@H](C)C[C@H](C)/C=C/C=C/C=C/1C [compound 38]	–	10.3%	-14.3%	5.5%	11.6%	-28.9%	-5.4%	-4.5%	-45.0%	-1.1%	19 nM	-1.5%	0.48 nM	-9.4%	-14.9%
